How the values were obtained:
Assay in all cases: Kinase panel activity
Type in all cases: biochemical
Conditions in all cases: 0.1 μM, ATP Km
Ax1(h) = Ax1(h) (Homo sapiens, UniProt P30530)
Procedure: (§1) The effect of NTW-3475 on kinase activity was tested for a wide range of kinases and is shown in Table 2: Summary Sheet, Activity % ATP Concentration: Km

BTK(h) = BTK(h) (Homo sapiens, UniProt Q06187)
Procedure: as §1

Bmx(h) = Bmx(h) (Homo sapiens, UniProt P51813)
Procedure: as §1

CDK3/cyclinE(h) = CDK3/cyclinE(h) (Homo sapiens, UniProt Q00526)
Procedure: as §1

CK1γ3(h) = CK1γ3(h) (Homo sapiens, UniProt Q9Y6M4)
Procedure: as §1

CK2α2(h) = CK2α2(h) (Homo sapiens, UniProt P19784)
Procedure: as §1

CaMKIIβ(h) = CaMKIIβ(h) (Homo sapiens, UniProt Q13554)
Procedure: as §1

EGFR(T790M)(h) = target: T1, EGFR(T790M)(h) (Homo sapiens, UniProt P00533, T790M)
T1 construct: purchased Millipore (KinaseProfiler service)
Procedure: as §1

EphA1(h) = target: T2, EphA1(h) (Homo sapiens, UniProt P21709)
T2 construct: purchased Millipore (KinaseProfiler service)
Procedure: as §1

EphA7(h) = target: T3, EphA7(h) (Homo sapiens, UniProt Q15375)
T3 construct: purchased Millipore (KinaseProfiler service)
Procedure: as §1

F1t3(D835Y)(h) = F1t3(D835Y)(h) (Homo sapiens, UniProt P36888, D835Y)
Procedure: as §1

FGFR2(N549H)(h) = FGFR2(N549H)(h) (Homo sapiens, UniProt P21802, N549H)
Procedure: as §1

FGFR3(h) = FGFR3(h) (Homo sapiens, UniProt P22607)
Procedure: as §1

Fes(h) = target: T4, Fes(h) (Homo sapiens, UniProt P07332)
T4 construct: purchased Millipore (KinaseProfiler service)
T4 sequence (P07332 whole entry): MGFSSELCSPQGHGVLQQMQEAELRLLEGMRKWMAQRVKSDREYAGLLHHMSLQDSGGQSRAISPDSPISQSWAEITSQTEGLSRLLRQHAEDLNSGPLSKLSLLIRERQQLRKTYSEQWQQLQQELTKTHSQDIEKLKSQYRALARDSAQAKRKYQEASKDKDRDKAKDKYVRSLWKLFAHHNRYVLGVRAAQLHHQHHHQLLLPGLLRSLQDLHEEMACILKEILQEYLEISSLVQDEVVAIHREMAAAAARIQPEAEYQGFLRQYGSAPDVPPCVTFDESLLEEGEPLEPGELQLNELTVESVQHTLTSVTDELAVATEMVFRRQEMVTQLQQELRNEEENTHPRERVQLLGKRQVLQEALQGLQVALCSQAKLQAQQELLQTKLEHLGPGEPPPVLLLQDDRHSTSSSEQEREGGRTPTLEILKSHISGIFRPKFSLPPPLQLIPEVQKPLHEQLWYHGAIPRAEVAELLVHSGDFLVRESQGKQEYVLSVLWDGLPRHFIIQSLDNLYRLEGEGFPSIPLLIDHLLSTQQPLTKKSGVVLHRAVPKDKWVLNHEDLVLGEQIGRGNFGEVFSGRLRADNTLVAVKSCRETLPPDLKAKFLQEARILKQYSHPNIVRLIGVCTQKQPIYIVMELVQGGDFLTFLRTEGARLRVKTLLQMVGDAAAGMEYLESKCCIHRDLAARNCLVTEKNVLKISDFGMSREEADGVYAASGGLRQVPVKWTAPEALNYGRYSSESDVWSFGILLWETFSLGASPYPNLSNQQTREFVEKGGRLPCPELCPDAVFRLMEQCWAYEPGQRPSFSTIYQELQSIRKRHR
Procedure: as §1

GSK3α(h) = GSK3α(h) (Homo sapiens, UniProt P49840)
Procedure: as §1

GSK3β(h) = GSK3β(h) (Homo sapiens, UniProt P49841)
Procedure: as §1

Hck(h) = Hck(h) (Homo sapiens, UniProt P08631)
Procedure: as §1

IR(h) = IR(h) (Homo sapiens, UniProt P06213)
Sequence of IR(h) (P06213 28-1382): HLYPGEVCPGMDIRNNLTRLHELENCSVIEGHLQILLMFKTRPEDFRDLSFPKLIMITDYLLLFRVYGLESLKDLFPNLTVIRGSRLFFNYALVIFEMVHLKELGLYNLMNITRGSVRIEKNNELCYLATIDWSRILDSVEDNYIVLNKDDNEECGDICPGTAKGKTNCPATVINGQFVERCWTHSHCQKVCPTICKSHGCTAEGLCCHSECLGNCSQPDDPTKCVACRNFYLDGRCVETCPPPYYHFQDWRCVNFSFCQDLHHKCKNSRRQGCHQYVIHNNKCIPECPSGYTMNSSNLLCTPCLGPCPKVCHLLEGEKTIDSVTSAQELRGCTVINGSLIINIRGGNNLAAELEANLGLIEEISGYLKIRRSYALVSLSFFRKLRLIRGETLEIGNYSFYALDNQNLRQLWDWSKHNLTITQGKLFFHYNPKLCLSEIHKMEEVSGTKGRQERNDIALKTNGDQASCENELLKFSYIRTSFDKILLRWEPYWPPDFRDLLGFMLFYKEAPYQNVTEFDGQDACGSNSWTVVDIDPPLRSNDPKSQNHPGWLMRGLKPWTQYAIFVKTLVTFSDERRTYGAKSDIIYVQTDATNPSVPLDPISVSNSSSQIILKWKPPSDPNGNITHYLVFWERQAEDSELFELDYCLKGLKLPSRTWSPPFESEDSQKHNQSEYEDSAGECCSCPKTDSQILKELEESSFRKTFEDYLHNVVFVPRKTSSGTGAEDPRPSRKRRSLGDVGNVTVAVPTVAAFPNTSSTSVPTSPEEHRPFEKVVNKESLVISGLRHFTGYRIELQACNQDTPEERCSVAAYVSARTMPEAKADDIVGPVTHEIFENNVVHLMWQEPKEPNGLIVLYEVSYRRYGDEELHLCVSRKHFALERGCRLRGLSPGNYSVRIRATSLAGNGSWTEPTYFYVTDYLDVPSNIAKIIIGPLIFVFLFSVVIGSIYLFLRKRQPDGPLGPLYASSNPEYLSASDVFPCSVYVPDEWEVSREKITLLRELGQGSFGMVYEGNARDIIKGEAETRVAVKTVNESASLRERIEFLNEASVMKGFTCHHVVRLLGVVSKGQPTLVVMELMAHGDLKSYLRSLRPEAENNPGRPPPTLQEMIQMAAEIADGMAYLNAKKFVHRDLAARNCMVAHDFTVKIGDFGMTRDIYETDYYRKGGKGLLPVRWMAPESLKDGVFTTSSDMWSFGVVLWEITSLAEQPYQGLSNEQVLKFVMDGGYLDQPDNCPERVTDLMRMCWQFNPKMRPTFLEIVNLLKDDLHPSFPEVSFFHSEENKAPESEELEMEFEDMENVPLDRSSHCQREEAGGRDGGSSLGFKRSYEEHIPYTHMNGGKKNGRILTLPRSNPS
Procedure: as §1

IRAK1(h) = IRAK1(h) (Homo sapiens, UniProt P51617)
Procedure: as §1

IRAK4(h) = IRAK4(h) (Homo sapiens, UniProt Q9NWZ3)
Procedure: as §1

MAPK2(m) = MAPK2(m) (Mus musculus, UniProt P63085)
Procedure: as §1

MEK1(h) = target: T5, MEK1(h) (Homo sapiens, UniProt Q02750)
T5 construct: purchased Millipore (KinaseProfiler service)
Procedure: as §1

MSK2(h) = target: T6, MSK2(h) (Homo sapiens, UniProt O75676)
T6 construct: purchased Millipore (KinaseProfiler service)
Procedure: as §1

Mer(h) = target: T7, Mer(h) (Homo sapiens, UniProt Q12866)
T7 construct: purchased Millipore (KinaseProfiler service)
Procedure: as §1

Met(h) = target: T8, Met(h) (Homo sapiens, UniProt P08581)
T8 construct: purchased Millipore (KinaseProfiler service)
T8 sequence (P08581 25-1390): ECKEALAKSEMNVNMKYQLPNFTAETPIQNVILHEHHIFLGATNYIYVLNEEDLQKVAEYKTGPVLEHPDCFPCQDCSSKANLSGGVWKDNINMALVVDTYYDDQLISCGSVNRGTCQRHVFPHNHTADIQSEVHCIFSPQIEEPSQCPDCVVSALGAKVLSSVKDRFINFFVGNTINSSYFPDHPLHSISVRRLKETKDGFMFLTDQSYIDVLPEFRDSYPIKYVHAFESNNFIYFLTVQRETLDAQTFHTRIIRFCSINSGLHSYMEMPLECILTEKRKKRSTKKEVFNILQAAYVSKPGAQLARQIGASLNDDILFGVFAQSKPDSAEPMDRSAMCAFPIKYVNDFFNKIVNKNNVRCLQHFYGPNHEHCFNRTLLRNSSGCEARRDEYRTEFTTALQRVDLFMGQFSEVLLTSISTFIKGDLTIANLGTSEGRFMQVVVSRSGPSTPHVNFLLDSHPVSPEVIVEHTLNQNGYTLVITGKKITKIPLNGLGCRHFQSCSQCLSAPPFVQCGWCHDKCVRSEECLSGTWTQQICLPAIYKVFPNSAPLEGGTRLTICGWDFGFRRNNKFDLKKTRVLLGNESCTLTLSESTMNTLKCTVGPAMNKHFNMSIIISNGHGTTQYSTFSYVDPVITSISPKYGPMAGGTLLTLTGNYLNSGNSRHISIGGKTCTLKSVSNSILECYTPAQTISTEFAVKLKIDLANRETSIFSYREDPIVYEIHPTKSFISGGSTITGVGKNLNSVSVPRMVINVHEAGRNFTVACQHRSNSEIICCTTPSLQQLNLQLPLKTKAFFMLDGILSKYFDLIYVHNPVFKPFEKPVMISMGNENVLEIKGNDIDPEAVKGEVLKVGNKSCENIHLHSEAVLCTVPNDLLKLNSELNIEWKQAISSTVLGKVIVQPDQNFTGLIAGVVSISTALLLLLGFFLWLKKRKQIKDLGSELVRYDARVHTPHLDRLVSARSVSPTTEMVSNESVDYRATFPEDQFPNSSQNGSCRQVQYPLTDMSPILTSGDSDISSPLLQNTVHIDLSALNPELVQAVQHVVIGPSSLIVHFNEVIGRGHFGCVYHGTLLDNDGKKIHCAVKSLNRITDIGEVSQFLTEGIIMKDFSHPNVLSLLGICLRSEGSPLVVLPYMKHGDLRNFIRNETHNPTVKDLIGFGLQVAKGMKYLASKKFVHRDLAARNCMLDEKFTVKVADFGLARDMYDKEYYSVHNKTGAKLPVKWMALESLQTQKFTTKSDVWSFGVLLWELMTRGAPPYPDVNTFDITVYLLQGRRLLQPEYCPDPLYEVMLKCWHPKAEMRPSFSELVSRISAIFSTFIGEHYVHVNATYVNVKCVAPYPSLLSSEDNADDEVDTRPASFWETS
Procedure: as §1

NLK(h) = NLK(h) (Homo sapiens, UniProt Q9UBE8)
Procedure: as §1

PAK4(h) = PAK4(h) (Homo sapiens, UniProt O96013)
Procedure: as §1

PDGFRα(V561D)(h) = PDGFRα(V561D)(h) (Homo sapiens, UniProt P16234, V561D)
Sequence of PDGFRα(V561D)(h) (P16234 24-1089 V561D): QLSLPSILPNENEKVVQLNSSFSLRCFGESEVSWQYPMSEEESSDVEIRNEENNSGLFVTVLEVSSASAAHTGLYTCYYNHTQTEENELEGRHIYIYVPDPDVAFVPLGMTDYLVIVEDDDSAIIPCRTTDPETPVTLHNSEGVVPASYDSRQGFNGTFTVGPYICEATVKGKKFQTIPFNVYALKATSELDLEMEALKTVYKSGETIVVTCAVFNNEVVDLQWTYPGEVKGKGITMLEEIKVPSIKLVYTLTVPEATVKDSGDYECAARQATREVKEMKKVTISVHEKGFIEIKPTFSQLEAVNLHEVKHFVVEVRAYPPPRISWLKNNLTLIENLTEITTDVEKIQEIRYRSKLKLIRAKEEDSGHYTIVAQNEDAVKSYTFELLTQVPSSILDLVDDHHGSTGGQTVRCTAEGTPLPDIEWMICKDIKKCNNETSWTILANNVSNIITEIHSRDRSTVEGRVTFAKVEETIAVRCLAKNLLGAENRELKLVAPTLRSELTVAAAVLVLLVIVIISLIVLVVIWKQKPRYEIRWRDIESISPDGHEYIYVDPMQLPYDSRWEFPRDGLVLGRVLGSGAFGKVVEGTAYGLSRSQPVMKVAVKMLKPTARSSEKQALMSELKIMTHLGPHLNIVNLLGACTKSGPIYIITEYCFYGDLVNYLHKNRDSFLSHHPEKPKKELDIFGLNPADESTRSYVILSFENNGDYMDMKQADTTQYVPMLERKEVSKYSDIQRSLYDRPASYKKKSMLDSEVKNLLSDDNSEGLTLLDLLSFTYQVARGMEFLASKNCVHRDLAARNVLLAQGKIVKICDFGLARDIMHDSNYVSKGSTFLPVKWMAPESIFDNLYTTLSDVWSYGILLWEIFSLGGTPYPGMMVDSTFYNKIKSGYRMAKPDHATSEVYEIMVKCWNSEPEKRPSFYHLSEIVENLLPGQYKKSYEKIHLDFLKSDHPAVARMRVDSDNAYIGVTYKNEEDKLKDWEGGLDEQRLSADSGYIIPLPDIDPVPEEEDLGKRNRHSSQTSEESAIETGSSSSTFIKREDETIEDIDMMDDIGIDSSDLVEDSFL
Procedure: as §1

PKCη(h) = PKCη(h) (Homo sapiens, UniProt P24723)
Procedure: as §1

PKCμ(h) = PKCμ(h) (Homo sapiens, UniProt Q15139)
Procedure: as §1

RIPK2(h) = target: T9, RIPK2(h) (Homo sapiens, UniProt O43353)
T9 construct: purchased Millipore (KinaseProfiler service)
Procedure: as §1

Ron(h) = target: T10, Ron(h) (Homo sapiens, UniProt Q04912)
T10 construct: purchased Millipore (KinaseProfiler service)
Procedure: as §1

Ros(h) = target: T11, Ros(h) (Homo sapiens, UniProt P08922)
T11 construct: purchased Millipore (KinaseProfiler service)
Procedure: as §1

SGK3(h) = target: T12, SGK3(h) (Homo sapiens, UniProt Q96BR1)
T12 construct: purchased Millipore (KinaseProfiler service)
Procedure: as §1

STK33(h) = target: T13, STK33(h) (Homo sapiens, UniProt Q9BYT3)
T13 construct: purchased Millipore (KinaseProfiler service)
T13 sequence (Q9BYT3 whole entry): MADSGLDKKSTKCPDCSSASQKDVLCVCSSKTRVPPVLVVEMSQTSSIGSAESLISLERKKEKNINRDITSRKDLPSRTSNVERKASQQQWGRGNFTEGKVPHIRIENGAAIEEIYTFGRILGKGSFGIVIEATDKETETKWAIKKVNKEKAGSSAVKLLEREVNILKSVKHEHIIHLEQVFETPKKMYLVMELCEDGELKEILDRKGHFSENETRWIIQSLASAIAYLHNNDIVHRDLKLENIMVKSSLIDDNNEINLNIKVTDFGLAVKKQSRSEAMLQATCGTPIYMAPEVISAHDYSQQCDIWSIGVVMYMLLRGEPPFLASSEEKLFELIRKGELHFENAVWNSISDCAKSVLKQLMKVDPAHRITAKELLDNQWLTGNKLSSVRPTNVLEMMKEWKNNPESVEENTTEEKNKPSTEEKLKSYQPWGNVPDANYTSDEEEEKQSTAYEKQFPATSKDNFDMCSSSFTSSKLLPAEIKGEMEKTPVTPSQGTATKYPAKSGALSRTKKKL
Procedure: as §1

TAK1(h) = target: T14, TAK1(h) (Homo sapiens, UniProt O43318)
T14 construct: purchased Millipore (KinaseProfiler service)
Procedure: as §1

TAO2(h) = target: T15, TAO2(h) (Homo sapiens, UniProt Q9UL54)
T15 construct: purchased Millipore (KinaseProfiler service)
Procedure: as §1

ZAP-70(h) = ZAP-70(h) (Homo sapiens, UniProt P43403)
Procedure: as §1

cKit(V654A)(h) = cKit(V654A)(h) (Homo sapiens, UniProt P10721, V654A)
Procedure: as §1

cKit(h) = cKit(h) (Homo sapiens, UniProt P10721)
Procedure: as §1

Structure (SMILES): Cc1cc2c(F)c(Oc3nc(Nc4cc(C5CC5)[nH]n4)cc(N4CCN(C)CC4)n3)cc(F)c2[nH]1 [NTW-3475]
- Activity % (Ax1(h)): 34%
- Activity % (BTK(h)): 37%
- Activity % (Bmx(h)): 1%
- Activity % (CDK3/cyclinE(h)): 59%
- Activity % (CK1γ3(h)): 117%
- Activity % (CK2α2(h)): 115%
- Activity % (CaMKIIβ(h)): 99%
- Activity % (EGFR(T790M)(h)): 61%
- Activity % (EphA1(h)): 12%
- Activity % (EphA7(h)): 54%
- Activity % (F1t3(D835Y)(h)): 0%
- Activity % (FGFR2(N549H)(h)): −1%
- Activity % (FGFR3(h)): 0%
- Activity % (Fes(h)): 32%
- Activity % (GSK3α(h)): 96%
- Activity % (GSK3β(h)): 106%
- Activity % (Hck(h)): 18%
- Activity % (IR(h)): 30%
- Activity % (IRAK1(h)): 96%
- Activity % (IRAK4(h)): 67%
- Activity % (MAPK2(m)): 101%
- Activity % (MEK1(h)): 63%
- Activity % (MSK2(h)): 90%
- Activity % (Mer(h)): 2%
- Activity % (Met(h)): 11%
- Activity % (NLK(h)): 96%
- Activity % (PAK4(h)): 70%
- Activity % (PDGFRα(V561D)(h)): 8%
- Activity % (PKCη(h)): 101%
- Activity % (PKCμ(h)): 95%
- Activity % (RIPK2(h)): 90%
- Activity % (Ron(h)): 34%
- Activity % (Ros(h)): 46%
- Activity % (SGK3(h)): 102%
- Activity % (STK33(h)): 101%
- Activity % (TAK1(h)): 65%
- Activity % (TAO2(h)): 6%
- Activity % (ZAP-70(h)): 110%
- Activity % (cKit(V654A)(h)): 32%
- Activity % (cKit(h)): 84%

Reference: patent US9458137B2, “Substituted indol-5-ol derivatives and their therapeutical applications” (NantBioScience, Inc., priority 2012, dated 2016)
